# Measured values as given in patent US8563714B2, “Bridged spiro [2.4] heptane derivatives as ALX receptor and/or FPRL2 agonists” (Actelion Pharmaceuticals Ltd., priority 2009, dated 2013).
# What was measured:
# human ALX receptor = biological target: T1, human ALX receptor (Homo sapiens, UniProt P25090); assay: Intracellular calcium measurements (FLIPR), agonistic activity in HEK293-hALXR-Gα16 cells; format: cell-based; conditions: Fluo-4 calcium FLIPR, normalized to WKYMVm 10 nM
# T1 construct: expressed in transfected cells; host or cells: HEK293 (HEK293-hALXR-Gα16)
# T1 sequence (P25090 1-351): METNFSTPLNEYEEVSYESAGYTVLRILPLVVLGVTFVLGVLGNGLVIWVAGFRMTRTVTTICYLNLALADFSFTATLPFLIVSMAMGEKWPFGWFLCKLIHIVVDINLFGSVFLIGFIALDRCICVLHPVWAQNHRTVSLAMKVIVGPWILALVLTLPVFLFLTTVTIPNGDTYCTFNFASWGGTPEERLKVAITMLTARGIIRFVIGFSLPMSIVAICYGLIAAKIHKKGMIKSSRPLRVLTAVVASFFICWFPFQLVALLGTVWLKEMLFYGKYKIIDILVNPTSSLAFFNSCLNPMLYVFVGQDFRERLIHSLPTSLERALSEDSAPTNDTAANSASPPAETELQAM
# Method in brief: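 Agonist-induced calcium flux was recorded by FLIPR (488/540 nm) in HEK293-hALXR-Gα16 cells pre-loaded with Fluo-4 AM (1 μM, 60 min, 37°C). Peak signal above baseline, after subtracting buffer addition, was expressed relative to WKYMVm at 10 nM final.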
# human FPRL2 = biological target: T2, human FPRL2 (Homo sapiens, UniProt P25089); assay: Intracellular calcium measurements (FLIPR), agonistic activity in HEK293-hFPRL2-Gα16 cells; format: cell-based; conditions: Fluo-4 calcium FLIPR, normalized to GLY14-Humanin 100 nM
# T2 construct: expressed in transfected cells; host or cells: HEK293 (HEK293-hFPRL2-Gα16)
# T2 sequence (P25089 1-353): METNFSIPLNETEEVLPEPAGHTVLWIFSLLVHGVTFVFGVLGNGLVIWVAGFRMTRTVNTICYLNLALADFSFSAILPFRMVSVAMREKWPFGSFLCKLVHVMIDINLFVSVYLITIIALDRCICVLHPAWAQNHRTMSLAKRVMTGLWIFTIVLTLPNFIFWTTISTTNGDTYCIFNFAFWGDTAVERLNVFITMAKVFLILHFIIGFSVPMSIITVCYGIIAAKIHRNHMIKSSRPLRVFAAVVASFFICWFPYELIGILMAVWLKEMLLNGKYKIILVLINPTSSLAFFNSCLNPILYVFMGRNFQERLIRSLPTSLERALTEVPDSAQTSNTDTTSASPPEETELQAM
# Method in brief: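 Peak values after baseline subtraction are expressed relative to 100 nM Gly14-Humanin; compounds diluted in assay buffer from 10 mM DMSO stocks.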
Compound,EC50 (human ALX receptor) [nM],EC50 (human FPRL2) [nM]
"O=C(NCCCCN1CCCC1)[C@H]1[C@H](C(=O)Nc2nc(-c3ccc(Cl)cc3)cs2)[C@@H]2C=C[C@H]1C21CC1 (racemic) [Example 150, (5R*)—N^5-(4-(4-Chlorophenyl)-thiazol-2-yl)-(6R*)—N^6-(4-pyrrolidin-1-yl-butyl)-(4S*,7R*)-[4,7-ethenylene-spiro[2.4]heptane]-5,6-dicarboxamide]",8440,110
"O=C(NCCCCN1CCCC1)[C@H]1[C@H](C(=O)Nc2cccc3nonc23)[C@@H]2C=C[C@H]1C21CC1 (racemic) [Example 151, (5R*)—N^5-(Benzo[2,1,3]oxadiazol-4-yl)-(6R*)—N^6-(4-pyrrolidin-1-yl-butyl)-(4S*,7R*)-[4,7-ethenylene-spiro[2.4]heptane]-5,6-dicarboxamide]",9120,714
"CC(C)(C)c1csc(NC(=O)[C@H]2[C@H](C(=O)NCCCCN3CCCC3)[C@H]3C=C[C@@H]2C32CC2)n1 (racemic) [Example 152, (5R*)—N^5-(4-tert-Butyl-thiazol-2-yl)-(6R*)—N^6-(4-pyrrolidin-1-yl-butyl)-(4S*,7R*)-[4,7-ethenylene-spiro[2.4]heptane]-5,6-dicarboxamide]",9630,150
"O=C(NCCCCN1CCCC1)[C@H]1[C@H](C(=O)Nc2nc(-c3ccccc3)ns2)[C@@H]2C=C[C@H]1C21CC1 (racemic) [Example 153, (5R*)—N^5-(3-Phenyl-[1,2,4]thiadiazol-5-yl)-(6R*)—N^6-(4-pyrrolidin-1-yl-butyl)-(4S*,7R*)-[4,7-ethenylene-spiro[2.4]heptane]-5,6-dicarboxamide]",9890,91
"O=C(NCCCCN1CCCC1)[C@H]1[C@H](C(=O)Nc2nc3ccc(Cl)cc3s2)[C@@H]2C=C[C@H]1C21CC1 (racemic) [Example 154, (5R*)—N^5-(6-Chloro-benzothiazol-2-yl)-(6R*)—N^6-(4-pyrrolidin-1-yl-butyl)-(4S*,7R*)-[4,7-ethenylene-spiro[2.4]heptane]-5,6-dicarboxamide]",10000,214
"Cc1cc2ccccc2n1CCCNC(=O)[C@H]1[C@H](C(=O)NCCCCN2CCCC2)[C@H]2C=C[C@@H]1C21CC1 (racemic) [Example 155, (5R*)—N^5-(3-(2-Methyl-1H-indol-1-yl)-propyl)-(6R*)—N^6-(4-pyrrolidin-1-yl-butyl)-(4S*,7R*)-[4,7-ethenylene-spiro[2.4]heptane]-5,6-dicarboxamide]",> 25000,91
"Cn1c(CCNC(=O)[C@H]2[C@H](C(=O)NCCCCN3CCCC3)[C@H]3C=C[C@@H]2C32CC2)nc2ccccc21 (racemic) [Example 156, (5R*)—N^5-(2-(1-Methyl-1H-benzoimidazol-2-yl)-ethyl)-(6R*)—N^6-(4-pyrrolidin-1-yl-butyl)-(4S*,7R*)-[4,7-ethenylene-spiro[2.4]heptane]-5,6-dicarboxamide]",> 25000,623
"O=C(NCCCCN1CCCC1)[C@H]1[C@H](C(=O)NCCn2ccc3ccccc32)[C@@H]2C=C[C@H]1C21CC1 (racemic) [Example 157, (5R*)—N^5-(2-(1H-Indol-1-yl)-ethyl)-(6R*)—N^6-(4-pyrrolidin-1-yl-butyl)-(4S*,7R*)-[4,7-ethenylene-spiro[2.4]heptane]-5,6-dicarboxamide]",> 25000,136
"COc1ccccc1CCNC(=O)[C@H]1[C@H](C(=O)NCCCCN2CCCC2)[C@H]2C=C[C@@H]1C21CC1 (racemic) [Example 158, (5R*)—N^5-(2-(2-Methoxy-phenyl)-ethyl)-(6R*)—N^6-(4-pyrrolidin-1-yl-butyl)-(4S*,7R*)-[4,7-ethenylene-spiro[2.4]heptane]-5,6-dicarboxamide]",> 25000,204

# These reach a lower EC50 (human ALX receptor). Values come first.
EC50 (human ALX receptor) [nM],EC50 (human FPRL2) [nM],Compound
4420,337,"Cc1nsc2ccc(NC(=O)[C@H]3[C@H](C(=O)NCCCCN4CCCC4)[C@H]4C=C[C@@H]3C43CC3)cc12 (racemic) [Example 146, (5R*)—N^5-(3-Methyl-benzo[d]isothiazol-5-yl)-(6R*)—N^6-(4-pyrrolidin-1-yl-butyl)-(4S*,7R*)-[4,7-ethenylene-spiro[2.4]heptane]-5,6-dicarboxamide]"
7410,837,"O=C(NCCCCN1CCCC1)[C@H]1[C@H](C(=O)Nc2ccc3[nH]ccc3c2)[C@@H]2C=C[C@H]1C21CC1 (racemic) [Example 147, (5R*)—N^5-(1H-Indol-5-yl)-(6R*)—N^6-(4-pyrrolidin-1-yl-butyl)-(4S*,7R*)-[4,7-ethenylene-spiro[2.4]heptane]-5,6-dicarboxamide]"
7600,226,"O=C(NCCCCN1CCCC1)[C@H]1[C@H](C(=O)Nc2nc3ccc(F)cc3s2)[C@@H]2C=C[C@H]1C21CC1 (racemic) [Example 148, (5R*)—N^5-(6-Fluoro-benzothiazol-2-yl)-(6R*)—N^6-(4-pyrrolidin-1-yl-butyl)-(4S*,7R*)-[4,7-ethenylene-spiro[2.4]heptane]-5,6-dicarboxamide]"
8090,691,"CCC(CC)CNC(=O)[C@H]1[C@H](C(=O)NCCCCN2CCCC2)[C@H]2C=C[C@@H]1C21CC1 (racemic) [Example 149, (5R*)—N^5-(2-Ethyl-butyl)-(6R*)—N^6-(4-pyrrolidin-1-yl-butyl)-(4S*,7R*)-[4,7-ethenylene-spiro[2.4]heptane]-5,6-dicarboxamide]"
47,7920,"O=C(CCCN1CCCC1=O)NC[C@H]1[C@H](C(=O)Nc2ccc(Br)cc2)[C@@H]2C=C[C@H]1C21CC1 (racemic) [Example 161, (5R*)—N^5-(4-Bromo-phenyl)-(6R*)-6-[(4-(2-oxo-pyrrolidin-1-yl)-butyrylamino)-methyl]-(4S*,7R*)-[4,7-ethenylene-spiro[2.4]heptane]-5-carboxamide]"
61,1730,"O=C(Cc1ccccc1Cl)NC[C@H]1[C@H](C(=O)Nc2ccc(Br)cc2)[C@@H]2C=C[C@H]1C21CC1 (racemic) [Example 162, (5R*)—N^5-(4-Bromo-phenyl)-(6R*)-6-[(2-(2-chloro-phenyl)-acetylamino)-methyl]-(4S*,7R*)-[4,7-ethenylene-spiro[2.4]heptane]-5-carboxamide]"
72,5680,"COCCC(=O)NC[C@H]1[C@H](C(=O)Nc2ccc(Br)cc2)[C@@H]2C=C[C@H]1C21CC1 (racemic) [Example 163, (5R*)—N^5-(4-Bromo-phenyl)-(6R*)-6-[(3-methoxy-propionylamino)-methyl]-(4S*,7R*)-[4,7-ethenylene-spiro[2.4]heptane]-5-carboxamide]"
80,6820,"CN(C)C(=O)CCC(=O)NC[C@H]1[C@H](C(=O)Nc2ccc(Br)cc2)[C@@H]2C=C[C@H]1C21CC1 (racemic) [Example 164, (5R*)—N^5-(4-Bromo-phenyl)-(6R*)-6-[(3-(N,N-dimethyl-aminocarbonyl)-propionyl-amino)-methyl]-(4S*,7R*)-[4,7-ethenylene-spiro[2.4]heptane]-5-carboxamide]"
